Format in all cases: in vivo
Assay [1] relates to Fmr1-KO mice. As to the kind of experiment: Novel object recognition test (working memory). How it is done: The experiments were performed following the ARRIVE (Animals in Research: Reporting In Vivo Experiments) guidelines. Fmr1-knockout (KO) and WT mice on a C57BL/6J congenic background were obtained from Prof. R. Willemsen. All animals were generated and housed in groups of 4 in standard laboratory conditions (22° C., 55±10% humidity, 12-h light/12-h dark diurnal cycles) with food and water provided ad libitum. Experimental testing was performed between 12:00 and 16:30 each day during the 12-h light period. Only male mice and rats were used. Animal care was conducted in accordance with the European Community Directive 2010/63/EU. The experiments were approved by the local ethics committee (Comité d′Ethique en Expérimentation Animale, by the French Ministry of Research. Trimeprazine and opipramol were purchased from Prestwich Library. Both molecules were diluted in DMSO at the stock concentration of 100 mM. All compounds injected intraperitoneally were administered in a volume of 1.5 ml per kg body weight at the amount indicated in the legends of each figure. On day 1 and 2, mice were habituated for 10 min to the maze in which the task was performed. On the third day, mice were put back in the maze for 10 min, two identical objects were presented and the time that the mice spent exploring each object was recorded. The mice were again placed in the maze 5 minutes later for 10 min, one of the familiar objects was replaced with a novel object and the total time spent exploring each of the two objects (novel and familiar) was computed. Object exploration was defined as the orientation of the nose to the object at a distance of less than 2 cm. A discrimination index was calculated as the difference between the times spent exploring either the novel or familiar object divided by the total time exploring the two objects. A higher discrimination index is considered to reflect greater memory retention for the familiar object. Pharmacological treatment with SM2 and SM4 was performed 30 minutes before training.

The subject of assay [2] is Fmr1-KO mice. Briefly: Homing behaviour test (social discrimination, cognition). Conditions: 13 post-natal days; for latency time (homing test): 0.175 mg/kg BW intraperitoneal, FIG. 2A. The protocol:
The experiments were performed following the ARRIVE (Animals in Research: Reporting In Vivo Experiments) guidelines. Fmr1-knockout (KO) and WT mice on a C57BL/6J congenic background were obtained from Prof. R. Willemsen. All animals were generated and housed in groups of 4 in standard laboratory conditions (22° C., 55±10% humidity, 12-h light/12-h dark diurnal cycles) with food and water provided ad libitum. Experimental testing was performed between 12:00 and 16:30 each day during the 12-h light period. Only male mice and rats were used. Animal care was conducted in accordance with the European Community Directive 2010/63/EU. The experiments were approved by the local ethics committee (Comité d′Ethique en Expérimentation Animale, by the French Ministry of Research. Trimeprazine and opipramol were purchased from Prestwich Library. Both molecules were diluted in DMSO at the stock concentration of 100 mM. All compounds injected intraperitoneally were administered in a volume of 1.5 ml per kg body weight at the amount indicated in the legends of each figure. Homing Behaviour Test: At PND 13, the litter was separated from the dam and kept for 30 min in a temperature-controlled holding cage. Then, each mouse pup was placed into a Plexiglas box whose floor was covered for ⅓ with bedding from the pup's home cage and for ⅔ with clean bedding. The pup was located at the side of the box covered by clean bedding, and its behaviour was videorecorded for 4 min for subsequent analysis. The following parameters were scored using the Observer 3.0 software (Noldus Information Technology): latency (s) to reach the home-cage bedding area; total time (s) spent by the pup in the nest bedding area.

Assay [3] relates to Fmr1-KO mice. Briefly: Social interaction test. Conditions: 28-30 post-natal days, 0.25 mg/kg BW intraperitoneal. How it is done:
The experiments were performed following the ARRIVE (Animals in Research: Reporting In Vivo Experiments) guidelines. Fmr1-knockout (KO) and WT mice on a C57BL/6J congenic background were obtained from Prof. R. Willemsen. All animals were generated and housed in groups of 4 in standard laboratory conditions (22° C., 55±10% humidity, 12-h light/12-h dark diurnal cycles) with food and water provided ad libitum. Experimental testing was performed between 12:00 and 16:30 each day during the 12-h light period. Only male mice and rats were used. Animal care was conducted in accordance with the European Community Directive 2010/63/EU. The experiments were approved by the local ethics committee (Comité d'Ethique en Expérimentation Animale, by the French Ministry of Research. Trimeprazine and opipramol were purchased from Prestwich Library. Both molecules were diluted in DMSO at the stock concentration of 100 mM. All compounds injected intraperitoneally were administered in a volume of 1.5 ml per kg body weight at the amount indicated in the legends of each figure. Social Interaction Test: The 28-30-day-old mice were individually habituated to the experimental apparatus (a Plexiglas cage measuring 30×30×30 cm) for 5 min the day before testing. On the test day, the animals were isolated for 2 h before testing, to enhance their social motivation and thus facilitate the expression of social interaction during testing. The test consisted of placing 2 animals (same treatment and weight) into the test cage for 10 min. The behaviour of the animals was recorded using a video camera with zoom lens, DVD recorder and LCD monitor. Behaviour was assessed per single animal and analyzed by a trained observer who was unaware of genotype and treatment conditions using the Observer XT software (Noldus, The Netherlands). The following parameters were scored: a. Social Activities: • 1. Social sniffing: sniffing any part of the body of the partner, including the anogenital area. • 2. Following: moving in the direction of or pursuing the partner, who moves away. • 3. Mutual circle: partners are mutually sniffing each other's anogenital region, while describing tight circles with their reciprocal following movements. • 4. Pushing past: the focal animal passes between the wall of the cage and the body of the partner by pushing its own body through the narrow space available. • 5. Crawling under/over: the focal animal crawls underneath or over the partner's body, crossing it transversely from one side to the other. • 6. Social grooming: chewing and licking the fur of the partner. • 7. Social rest: the focal animal is being groomed by the partner. • 8. […] The average frequency of total social activities, quantified as number of events during the 10 min testing session, was graphed.

[4] abbreviates: Fmr1-KO adolescent mice, acute treatment.

On to `OCCN1CCN(CCCN2c3ccccc3C=Cc3ccccc32)CC1` [SM2, opipramol], for which the discrimination index entry is “not normalized” in assay [1] (Fmr1-KO adult mice 8 weeks, 0.18 mg/kg BW intraperitoneal 30 minutes before training, FIG. 3B) and “worsened the behaviour” in assay [1] (WT adult mice 8 weeks, 0.18 mg/kg BW intraperitoneal 30 minutes before training, FIG. 3B). For the same molecule, the “latency time (homing test)” value is “does not have a beneficial impact” in assay [2] (Fmr1-KO infant mice) and “has a negative impact” in assay [2] (WT infant mice). The results for the “number of social interactions” value in assay [3] (setting [4]) and in assay [3] (WT adolescent mice) were “does not have a beneficial impact” and “has a negative impact”, respectively.

In the case of `CC(CN(C)C)CN1c2ccccc2Sc2ccccc21` (centres unmarked) [SM4, Trimeprazine], the discrimination index result in assay [1] (Fmr1-KO adult mice 8 weeks, 0.3 mg/kg BW intraperitoneal 30 minutes before training, FIG. 3A) was “Discrimination index is the same in treated WT and Fmr-KO mice”; in assay [1] (WT adult mice 8 weeks, 0.3 mg/kg BW intraperitoneal 30 minutes before training, FIG. 3A), “has no impact on the behaviour”. Besides, the “latency time (time the mouse pups need to find the mother's litter)” value in assay [2] (Fmr1-KO infant mice, 0.25 mg/kg BW intraperitoneal, FIG. 1A) is recorded as “normalized”. In addition, the “number of social interactions” value in assay [3] (setting [4]) was “normalized”; in assay [3] (WT adolescent mice), “does not modify the social interaction behaviour”.

The record behind these values is patent US20240050442A1, “TRIMEPRAZINE DERIVATIVES AND COMPOSITIONS COMPRISING THE SAME FOR TREATING A NEUROPSYCHIATRIC DISORDER” (CENTRE NATIONAL DE LA RECHERCHE SCIENTIFIQUE, priority 2020, published 2024).
